Entries after “also recorded” stand apart in the source; their conditions may differ.
Legend:
[1] = target: T1, ECT2 BRCT (Homo sapiens, UniProt Q9H8V3); assay: Competitive MST selectivity: ECT2; format: binding
T1 construct: ECT2 BRCT residues 22-326; 6x His (N); made in house; host or cells: E. coli C41(DE3)
T1 sequence (Q9H8V3 22-326 isoform Q9H8V3-4): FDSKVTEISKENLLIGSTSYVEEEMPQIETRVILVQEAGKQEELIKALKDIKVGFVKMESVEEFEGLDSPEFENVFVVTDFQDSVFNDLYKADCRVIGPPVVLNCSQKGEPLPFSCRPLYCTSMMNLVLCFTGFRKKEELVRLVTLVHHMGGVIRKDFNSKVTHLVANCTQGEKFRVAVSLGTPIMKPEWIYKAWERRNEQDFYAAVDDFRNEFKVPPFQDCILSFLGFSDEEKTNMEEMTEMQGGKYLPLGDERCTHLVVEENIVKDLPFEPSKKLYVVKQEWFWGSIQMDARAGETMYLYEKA
Experimental: Protein domains used in the assay were labeled with NT-647-NHS fluorescent dye using the Monolith NT™ Protein Labeling Kit (NanoTemper Technologies). Assays were carried out in 20mM Tris buffer, pH 7.4, with 200mM NaCl, 0.05% Tween-20 and 2mM DTT. For the direct binding assay, 10μl of labeled protein at a final concentration of 20nM was mixed with 10μl of test compound and incubated on ice for 10 min. For the competitive assay, 10μl of labeled protein at a final concentration of 20nM was mixed with 2μM cognate peptide substrate at the EC80 concentration determined by prior titration using a 16-point serial dilution by direct-binding MST. For both assays, samples prepared as above were centrifuged at 15000 rpm at 4°C for 10 min and 4μl of the supernatant was loaded into premium glass capillaries (NanoTemper Technologies). MST analysis was performed at MST power of 40% and LED power of 80%, at 22°C temperature using a Monolith NT.115 (NanoTemper Technologies). An initial “Capillary Scan” was performed to scan for fluorescence across the length of the capillary tray to determine the exact position of each capillary before the MST measurement was started. Test compounds were assayed at 16 different concentrations by serial dilution, and data were analysed using NanoTemper analysis software. Kd values were determined using “T-jump + Thermophoresis” settings. […]

[2] = system: MDC1 foci; assay: Radiation-induced nuclear MDC1 foci, HEK293 cells; format: cell-based, human; details: 100 μM added 6 hr after 16 Gy
Experimental: (§1) HEK293 cells stably harboring plasmids for Tet-inducible expression of tBRCT domains were seeded at 30,000 cells/well on Matrigel-coated 96-well plates, and treated as indicated. Cells were fixed in 2.5% PFA, for 20’ at RT and incubated in 1x PBS with 10% FBS plus 0.5% TritonX-100 for 1 h for blocking and permeabilization. Primary antibody staining was performed at the indicated dilutions in PBST-BSA buffer (0.7mg/ml BSA, 0.05% Tween-20 in 1XPBS) for 1h at RT. Cells were then extensively washed in PBST-BSA buffer and stained with goat-anti-mouse Alexa 488 secondary antibody (Invitrogen), at 1:1000 dilution along with 2.5μg/ml DAPI for nuclear staining. […] Images were acquired on a high-content imaging platform (Cellomics ArrayScan VTI HCS Reader (Thermo Fisher Scientific)) using a 40x objective. On average ∼800 fields from 6-well replicates, containing a total of ∼10-20K cells were imaged per treatment group and quantified using image analysis software (in-house algorithms using MatLab and commercially available HCS studio 2.0 from Thermo Fisher Scientific). […] Cut-off values for foci number per cell specifying the maximal difference between control and irradiated samples were determined to calculate the percentage of cells positive for radiation-induced foci. […]

[3] = system: HEK293 cells; assay: Cell cycle profiles by flow cytometry after 4 Gy (damage-induced G2 arrest); format: cell-based, human; details: 10–100 μM Bractoppin or 100 μM CCBT2047 added 0.5 hr before radiation
Experimental: HEK293 cells stably harboring plasmids for Tet-inducible expression of tBRCT domains were seeded on 12-well plates at 1.8 X10^5 cells/well. Cells were thymidine blocked and synchronously released into the cell cycle following irradiation at 4Gy, without or with exposure to compounds (at final concentrations with 0.5% DMSO) in serum-containing media for 16 h. Cells were re-suspended in 1x PBS, fixed with 80% ethanol, and permeabilized in buffer containing 0.1% Tween-20 in PBS (PBST), for 20’ at RT. DAPI staining was used to quantify nuclear DNA content. Analysis was performed using a Beckman Coulter Gallios analyzer, and quantified using the Dean-Jet algorithm in FlowJo software.

[4] = system: BRCA1 foci; assay: Radiation-induced nuclear BRCA1 foci, high-content imaging, HEK293 cells; format: cell-based, human; details: 100 μM added 6 hr after 16 Gy, staining 18 hr after irradiation
Experimental: as §1

[5] = system: HEK293 cells; assay: Cell viability after 1 Gy irradiation (calcein AM dye and cell counting); format: cell-based, human; details: 1–100 μM added 1 hr before 1 Gy, viability 7 days later
Experimental: HEK293 cells stably harboring plasmids for Tet-inducible expression of tBRCT domains were seeded at a density of 60,000 cells/35mm dish. Compound addition or inducible expression of BRCA1 tBRCT were performed as indicated, when cells were ∼30% confluent, before exposure to 1Gy irradiation. Cells were replenished with media every 3rd day for 7 days, re-suspended in cell dissociation buffer, which was neutralized in 1x PBS. Cells were mixed thoroughly to ensure single cell suspension before measurement of viability using Calcein AM dye and/or cell counting with a hemocytometer. Cell survival fractions were measured using fluorescence readout of Calcein AM with the Tecan Infinite M1000 Pro reader (485nm excitation and 515nm emission) and data were normalized to untreated controls across treatment groups.

[6] = system: RAD51 foci; assay: Radiation-induced nuclear RAD51 foci; format: cell-based, human; details: 100 μM, 16 Gy, as Figure 5A
Experimental: as §1

[7] = system: RPA32 foci; assay: Radiation-induced nuclear RPA32 foci; format: cell-based, human; details: 100 μM, 16 Gy, as Figure 5A
Experimental: as §1

binding to fluorescently labeled ECT2 tBRCT domain [1]: does not detectably bind
Structure (SMILES): O=C(c1ccc2nc(-c3ccccc3)[nH]c2c1)N1CCN(Cc2ccccc2F)CC1 [Bractoppin, (4-(2-fluorobenzyl)piperazin-1-yl) (2-phenyl-1H-benzo[d]imidazol-6-yl) methanone]
effect on radiation-induced accumulation of MDC1 at sites of DNA damage [2]: little effect
effect on damage-induced G2 arrest [3]: inhibited in a dose-dependent manner
effect on formation of radiation-induced BRCA1 foci [4]: inhibits the formation of radiation-induced BRCA1 foci; also recorded: selectively inhibits damage-induced BRCA1 foci formation
effect on cytotoxicity induced by exposure to 1 Gy IR [5]: significantly enhances cytotoxicity
effect on IR-induced RAD51 foci [6]: selectively suppresses
effect on RPA32 accumulation [7]: little effect
